Experimental findings from ChEMBL document CHEMBL2095176, “GSK Tuberculosis Screening Data” are described below.

Structures are written as SMILES. Values after ≈ are worked out from the molar mass of the structure shown.

The test system of this assay is Mycobacterium tuberculosis variant bovis BCG. Briefly: microbe, parasite or virus in culture. Type of assay: functional.
With `O=C(COc1ccc(F)cc1Cl)Nc1nc(-c2ccccn2)cs1`, the MIC90 came to 3.9 µM (≈ 1.42 µg/mL).
To `CC1=NN(C(=O)c2ccco2)C(O)(c2ccccc2)C1` (centres undefined) belongs 4.2 µM (≈ 1.14 µg/mL).
To `O=C(Nc1ccccc1C(F)(F)F)N1CCN(c2ccc3nnc(-c4ccc(F)cc4)n3n2)CC1` belongs 4 µM (≈ 1.94 µg/mL); to `CCOC(=O)c1cc(-c2csc(Nc3c(C)cc(C)cc3C)n2)on1`, 7.7 µM (≈ 2.75 µg/mL); to `Cc1nnc(NCc2ccccc2)c2ccccc12`, 4.4 µM (≈ 1.1 µg/mL).
With `Cc1cccc(Cn2ccc(NC(=O)c3ccc4c(c3)OCO4)n2)c1`, the MIC90 came to 8.2 µM (≈ 2.75 µg/mL).
Next, `CC(=O)N1CCc2cc3nc(C)cc(C)c3cc21`: 3.5 µM (≈ 0.841 µg/mL); `O=C(Nc1nnc(SCc2ccc(F)cc2)s1)c1ccccn1`: 4.6 µM (≈ 1.59 µg/mL); `O=c1oc(-c2ccccc2F)nc2scc(-c3ccccc3)c12`: 4 µM (≈ 1.29 µg/mL).
Next, `O=C(Nc1ccc(-c2nc3ccccc3o2)cc1)c1cccnc1`: 4.5 µM (≈ 1.42 µg/mL); `CCOC(=O)c1c(-c2ccccc2)oc2ccc(O)c(CN3CCCC3)c12`: 3.9 µM (≈ 1.43 µg/mL); `O=C(Nc1nc(-c2ccccn2)cs1)c1ccco1`: 4.5 µM (≈ 1.22 µg/mL).
To `CC(C)Oc1ccc(C(=O)Nc2nc(-c3ccccn3)cs2)cc1` belongs 4.1 µM (≈ 1.39 µg/mL); to `Cc1ccc(SCCC(=O)Nc2nc(-c3ccccn3)cs2)cc1`, 4.4 µM (≈ 1.56 µg/mL).
In the case of `COc1cc(Cl)c(Cl)cc1C(=O)Nc1cccc2c1CCN(C)C2`, the MIC90 is 4 µM (≈ 1.46 µg/mL).
As for `CCOc1ccc(C(=O)Nc2ccc3c(c2)C(C)N(C)CC3)cc1Br` (centres undefined), the MIC90 came to 4 µM (≈ 1.61 µg/mL).
`CC(C)(C)C(=O)CC1(O)Oc2ccccc2N=C1C=C(O)C(C)(C)C` (centres undefined) came in with an MIC90 of 5.3 µM (≈ 1.83 µg/mL).
To `O=S(=O)(NCC1CCCO1)c1ccc(-c2ccc(CN3CCOCC3)cc2)s1` (centres undefined) belongs 4.1 µM (≈ 1.73 µg/mL); to `c1ccc(-n2ncc3c(N4CCCNCC4)nc(C4CC4)nc32)cc1`, 4.1 µM (≈ 1.37 µg/mL); to `O=C(Nc1nnc(-c2ccccc2)o1)c1ccc2c(c1)CCCC2`, 4.1 µM (≈ 1.31 µg/mL).
In the case of `O=C(Nc1nnc(-c2ccc(Cl)cc2)o1)c1cc(F)cc(F)c1`, the MIC90 was found to be 4.1 µM (≈ 1.38 µg/mL).
In the case of `Cc1ccc(C)c(-c2nnc(NC(=O)c3cccc(C(F)(F)F)c3)o2)c1`, the MIC90 came to 4.1 µM (≈ 1.48 µg/mL).
Next, `O=c1nc(Oc2ccccc2)c(F)c[nH]1`: 4.2 µM (≈ 0.866 µg/mL).
As for `Cc1ccc(Cl)c2sc(N(CCN(C)C)C(=O)c3cccc(S(C)(=O)=O)c3)nc12`, the MIC90 amounted to 4.2 µM (≈ 1.9 µg/mL).
`COc1ccc(CCNC(=O)c2cc(-c3ccc(OC)c(OC)c3)on2)cc1OC` returned an MIC90 of 4.2 µM (≈ 1.73 µg/mL).
To `O=C(COc1ccc2c(c1)CCC2)NNC(=O)c1cccs1` belongs 4.2 µM (≈ 1.33 µg/mL).
To `C[C@@H]1CN(c2ccc(C#N)c(C(F)(F)F)c2)CCN1` belongs 4.2 µM (≈ 1.13 µg/mL).
To `O=C(COc1ccc(Cl)cc1)NNC(=O)c1cccs1` belongs 4.2 µM (≈ 1.31 µg/mL); to `c1ccc(-c2nnc(Sc3ccnc(N4CCN(c5ccncc5)CC4)n3)n2CCN2CCOCC2)cc1`, 4.2 µM (≈ 2.22 µg/mL).
Regarding `O=C(/C=C/c1ccc(C(F)(F)F)cc1F)NC1CCN(c2ncccc2C(F)(F)F)CC1`, the MIC90 was 4.2 µM (≈ 1.94 µg/mL).
`Cc1ccccc1CN1CCC(O)(c2ccc(Cl)c(C(F)(F)F)c2)CC1`: the MIC90 worked out at 4.3 µM (≈ 1.65 µg/mL).
To `O=C(C1CCN(c2nnc(-n3cccc3)s2)CC1)N1CCC(Cc2ccccc2)CC1` belongs 3.4 µM (≈ 1.48 µg/mL); to `Cc1onc(-c2ccccc2)c1C(=O)Nc1nc(-c2ccccn2)cs1`, 4.3 µM (≈ 1.56 µg/mL).
Next, `O=c1cc(N2CCCNCC2)c(Cl)nn1CCCNS(=O)(=O)c1cccc(-c2ccccc2)c1`: 4.3 µM (≈ 2.16 µg/mL); `O=C(Cc1ccc(Cl)cc1)Nc1nc(-c2ccccn2)cs1`: 4.3 µM (≈ 1.42 µg/mL); `CC(C)(C)c1ccc(C(=O)Nc2nnc(-c3ccco3)o2)cc1`: 4.3 µM (≈ 1.34 µg/mL).
As to `O=C(NNC(=O)c1cccs1)c1ccc(-c2cccc(C(F)(F)F)c2)o1`, the MIC90 is 4.3 µM (≈ 1.64 µg/mL).
To `COc1ccc(-c2ccc(Nc3cccc(S(=O)(=O)CCNCc4nccn4C)c3)nc2)cn1` belongs 4.3 µM (≈ 2.06 µg/mL); to `O=C(c1ccc(-c2cccc(OCCN3CCC(c4ccccc4)CC3)c2)cc1)N1CCCC1`, 4.3 µM (≈ 1.95 µg/mL).
Compound `Cc1cc(C)c2cc(C#N)c(N3CCCNCC3)nc2c1` returned an MIC90 of 4.3 µM (≈ 1.21 µg/mL).
Next, `CCn1c(-c2nonc2N)nc2c(-c3cccc(Cl)c3)ncc(OCCCNCCc3c[nH]cn3)c21`: 4.3 µM (≈ 2.18 µg/mL); `O=C(Nc1ccc(C(F)(F)F)cc1)NC1CCCCC1`: 4.3 µM (≈ 1.23 µg/mL).
With `O=C(Nc1nnc(-c2ccc3c(c2)CCCC3)o1)c1ccc(Br)s1`, the MIC90 came out at 4.3 µM (≈ 1.74 µg/mL).
Next, `CCc1ccc(C2CC(C(F)(F)F)n3ncc(C(=O)NCc4cccs4)c3N2)cc1` (centres undefined): 8.8 µM (≈ 3.82 µg/mL).
Next, `COCCN1CCN(c2ncc(-c3ccccc3OCc3cc(C)on3)cn2)CC1`: 4.4 µM (≈ 1.8 µg/mL).
Next, `CC(C)C(NC(=O)CCc1nc2ccccc2oc1=O)c1nc2ccccc2[nH]1` (centres undefined): 4.4 µM (≈ 1.72 µg/mL); `CCCCOc1ccc(S(=O)(=O)NCCCn2nc(Cl)c(N3CCCNCC3)cc2=O)cc1`: 4.4 µM (≈ 2.19 µg/mL).
As for `COc1ccc2c(ccn2C(=O)OCCC2CCNCC2)c1`, the MIC90 turned out to be 4.4 µM (≈ 1.33 µg/mL).
`O=C(c1ccc(-c2cccc(OCCN3CCC(c4ccc(F)cc4)CC3)c2)cc1)N1CCCC1` gave an MIC90 of 4.4 µM (≈ 2.08 µg/mL).
In the case of `O=C(NNC(=O)c1cccs1)c1ccc(Oc2ccccc2)cc1`, the MIC90 was determined as 4.4 µM (≈ 1.49 µg/mL).
`COc1ccc(CCNc2nccc(-c3cccc(OC4CCNCC4)c3)n2)cc1` registered an MIC90 of 4.4 µM (≈ 1.78 µg/mL).
The compound `Nc1nc(SCc2cccc(F)c2F)nc2[nH]c(=O)cnc12` gave an MIC90 of 4.4 µM (≈ 1.41 µg/mL).
For `CCN(Cc1nc2ccccc2c(=O)[nH]1)C1CCCc2cccnc21` (centres undefined), the MIC90 turned out to be 4.4 µM (≈ 1.47 µg/mL).
To `Cc1ccc(C(=O)N2N=C(C(F)(F)F)CC2(O)c2ccncc2)cc1` (centres undefined) belongs 4.4 µM (≈ 1.54 µg/mL); to `Cc1ccc(-c2nnc(NC(=O)c3cccc(C(F)(F)F)c3)o2)c(C)c1`, 4.4 µM (≈ 1.59 µg/mL).
Next, `O=C(NNC(=O)c1cccs1)c1cnn(-c2ccccc2)n1`: 4.5 µM (≈ 1.41 µg/mL); `O=C(c1[nH]nc2c1CCCC2)N1CCN(Cc2ccc3c(c2)OCO3)CC1`: 3.9 µM (≈ 1.44 µg/mL); `O=c1cc(N2CCCNCC2)c(Cl)nn1CCCNS(=O)(=O)c1ccc(-c2ccccc2)cc1`: 4.6 µM (≈ 2.31 µg/mL).
Turning to `O=C(COc1ccc(Br)cc1Cl)Nc1nc(-c2ccccn2)cs1`, the MIC90 was 4.6 µM (≈ 1.95 µg/mL).
Next, `CC1(C(=O)Nc2cccc3cccnc23)CCN1CC1CC1` (centres undefined): 4.6 µM (≈ 1.36 µg/mL).
Consider `Cc1cc(C(=O)Nc2nc(-c3ccccn3)cs2)no1`, for which the MIC90 worked out at 4.6 µM (≈ 1.32 µg/mL).
As for `Cn1nc(C(=O)N2CCc3sccc3C2c2cccs2)c2ccccc2c1=O` (centres undefined), the MIC90 was 4.6 µM (≈ 1.87 µg/mL).
To `Cn1cc(C(=O)NCCc2ccccc2)c(=O)c2cc(S(=O)(=O)N3CCCC3)ccc21` belongs 4.6 µM (≈ 2.02 µg/mL); to `O=C(Nc1ccc(C(=O)Nc2cccc(C3=NCCN3)c2)cc1)Nc1ccc(C2=NCCN2)cc1`, 4.6 µM (≈ 2.15 µg/mL); to `CCOc1cc(CC)c(Br)cc1C(=O)Nc1cccc2c1CCN(C)C2`, 4.6 µM (≈ 1.92 µg/mL).
To `O=C(C=Cc1ccco1)N1CCN(Cc2ccc3c(c2)OCO3)CC1` belongs 7 µM (≈ 2.38 µg/mL); to `CCc1ccc(S(=O)(=O)Nc2cc(CN3CCN(CCC(C)C)CC3)ccc2C)cc1.O=C(O)C(F)(F)F.O=C(O)C(F)(F)F`, 6.3 µM; to `Cn1ccnc1CNCCS(=O)(=O)c1cccc(Nc2ccc(-c3cccc(F)c3)cn2)c1`, 4.3 µM (≈ 2 µg/mL).
Next, `Cc1cc(C)n(-c2nc(C)c(Br)c(N(C)CCO)n2)n1`: 4.7 µM (≈ 1.6 µg/mL); `FC(F)(F)c1cc(N2CCCNCC2)c2ccccc2n1`: 4.7 µM (≈ 1.39 µg/mL); `CN(Cc1nc2ccccc2s1)C(=O)c1ccc2c(c1)CC(c1ccccc1)OC2=O` (centres undefined): 4.7 µM (≈ 2.01 µg/mL).
For the compound `COc1ccc(-c2nsc(NC(=O)COc3ccc(C)cc3)n2)cc1OC`, the MIC90 stood at 4.7 µM (≈ 1.81 µg/mL).
In turn, `c1ccc(-c2ccc(CN3CCC4(CC3)OCCc3sccc34)s2)cc1` had an MIC90 of 4.7 µM (≈ 1.79 µg/mL).
Regarding `O=c1oc2ccccc2nc1CS(=O)(=O)c1ccc(Br)cc1`, the MIC90 is 4.7 µM (≈ 1.79 µg/mL).
Next, `O=C(C=Cc1ccccc1)N1CCN(Cc2ccc3c(c2)OCO3)CC1`: 2.9 µM (≈ 1.02 µg/mL); `Cc1cc(CN2CCC3(CC2)OCCc2sccc23)oc1C`: 2.1 µM (≈ 0.667 µg/mL).
Next, `COc1ccc(-c2nc(-c3cccc(NC(=O)Cc4ccc(F)cc4)c3)no2)cc1OC`: 2.3 µM (≈ 0.997 µg/mL).
To `CSc1cccc(C(=O)Nc2nc(-c3ccccn3)cs2)c1` belongs 4.6 µM (≈ 1.51 µg/mL).
`CCc1cc(=O)[nH]c(-n2nc(C)cc2NC(=O)c2cc3ccccc3o2)n1` registered an MIC90 of 3.8 µM (≈ 1.38 µg/mL).
With `O=C(Nc1nnc(-c2ccc3c(c2)CCCC3)o1)c1ccc(Cl)s1`, the MIC90 is 3.8 µM (≈ 1.37 µg/mL).
Next, `Cc1ccc2c(Cl)c(C(=O)NC3=NCCS3)sc2c1`: 3.8 µM (≈ 1.18 µg/mL); `O=C(/C=C/c1ccc(OC(F)(F)F)cc1)NC1CCN(c2ncccc2C(F)(F)F)CC1`: 3.8 µM (≈ 1.75 µg/mL); `Cc1ccc2nc(C(F)(F)F)c(C(=O)NCc3ccco3)n2c1`: 4.9 µM (≈ 1.58 µg/mL).
Next, `Cc1ccc(-n2ncc3c(N4CCCNCC4)nc(C4CC4)nc32)cc1`: 3.9 µM (≈ 1.36 µg/mL); `Cc1nc2ccccc2n1CC(O)COc1ccc(NC(=O)c2ccccc2)cc1` (centres undefined): 3.9 µM (≈ 1.57 µg/mL).
Compound `O=C(Nc1nnc(-c2ccc(Cl)cc2)o1)c1ccc(F)cc1` came in with an MIC90 of 3.9 µM (≈ 1.24 µg/mL).
Consider `O=C(Nc1ccc(Oc2ccccc2)cc1)NC1CCCCC1`, for which the MIC90 was determined as 3.9 µM (≈ 1.21 µg/mL).
Next, `CSc1ccc(-c2nnc(NC(=O)c3cccc(F)c3)o2)cc1`: 3.9 µM (≈ 1.28 µg/mL); `COc1ccc(CCC(=O)Nc2ccccc2Nc2ccc(OC)cc2)cc1`: 3.9 µM (≈ 1.47 µg/mL).
To `Cc1ccc(OCC(=O)Nc2ccc(C(=O)c3c(C)nc4sccn34)cc2)c(C)c1` belongs 3.9 µM (≈ 1.64 µg/mL).
To `CS(=O)(=O)N1CCN(c2ccccc2NC(=O)C(Cl)(Cl)Cl)CC1` belongs 3.9 µM (≈ 1.56 µg/mL); to `Cc1ccccc1CN1CCc2nc(N3CCN(c4ncccn4)CC3)ncc2C1`, 4 µM (≈ 1.61 µg/mL); to `O=C(Nc1nnc(SCc2ccc(Cl)cc2)s1)c1ccccn1`, 4 µM (≈ 1.45 µg/mL).
The compound `O=C(COCC(=O)Nc1nc(-c2ccccn2)cs1)Nc1nc(-c2ccccn2)cs1` displayed an MIC90 of 4 µM (≈ 1.81 µg/mL).
`Cc1ccc(-c2nnc(NC(=O)c3ccc(Cl)s3)o2)c(C)c1` showed an MIC90 of 4 µM (≈ 1.34 µg/mL).
To `N=C(Nc1nc(-c2ccccn2)cc2ccccc12)c1cccc(Cl)c1` belongs 0.6 µM (≈ 0.215 µg/mL); to `Br.Cc1ccccc1OCCCON1C(=N)N=C(N)NC1(C)C`, 7 µM.
In the case of `Cc1occc1C(=O)Nc1nc(-c2ccccn2)nc2ccsc12`, the MIC90 is 1.1 µM (≈ 0.37 µg/mL).
Next, `CCc1c(C)nc(-n2nc(C)cc2NC(=O)CCc2ccccc2)[nH]c1=O`: 3.8 µM (≈ 1.39 µg/mL).
